Experimental data taken from patent US20070149588A1, “6-(2,3,6-Trifluorophenyl)triazolopyrimidines, their preparation and their use for controlling harmful fungi, and compositions comprising these compounds” (priority 2003, published 2007).

test system: Botrytis cinerea; assay: Activity against gray mold on bell-pepper leaves caused by Botrytis cinerea, protective application; format: in vivo; details: 250 ppm, protective spray on bell-pepper seedlings cv. Neusiedler Ideal Elite, inoculated next day, assessed visually after 5 days; untreated plants 90% infected
Procedure: The active compounds were prepared as a stock solution with 25 mg of active compound which was made up to 10 ml using a mixture of acetone and/or DMSO and the emulsifier Uniperol® EL (wetting agent having emulsifying and dispersing action based on ethoxylated alkylphenols) in a volume ratio of solvent/emulsifier of 99 to 1. The mixture was then made up with water to 100 ml. This stock solution was diluted with the solvent/emulsifier/water mixture described to the concentration of active compound stated below. Bell-pepper seedlings of the cultivar “Neusiedler Ideal Elite” were, after 2 to 3 leaves were well developed, sprayed to runoff point with an aqueous suspension having the concentration of active compound stated below. The next day, the treated plants inoculated with a spore suspension of Botrytis cinerea, which contained 1.7×10^6 spores/ml in a 2% aqueous biomalt solution. The test plants were then placed in a dark climatized chamber at 22 to 24° C. and high atmospheric humidity. After 5 days, the extent of the fungal infection on the leaves could be determined visually in %.

SMILES	fungal infection on the leaves
Cc1nc2ncnn2c(N2CCCCC2C)c1-c1c(F)ccc(F)c1F (stereo not drawn) [I-3, 5-methyl-6-(2,3,6-trifluorophenyl)-7-(2-methylpiperidinyl)-1,2,4-triazolo[1,5a]pyrimidine]	no infection
CC1CCCCN1c1c(-c2c(F)ccc(F)c2F)c(C#N)nc2ncnn12 (stereo not drawn) [I-1, 5-cyano-6-(2,3,6-trifluorophenyl)-7-(2-methylpiperidinyl)-1,2,4-triazolo[1,5a]pyrimidine]	no infection
COc1nc2ncnn2c(NC2CCCC2)c1-c1c(F)ccc(F)c1F [I-2, 5-methoxy-6-(2,3,6-trifluorophenyl)-7-cyclopentylamino-1,2,4-triazolo[1,5a]pyrimidine]	no infection
